According to patent US5849753A, “Pyridyl imidazole derivatives and processes for the preparation thereof” (Korea Research Institute of Chemical Technology, priority 1994, dated 1998):

Legend:
renal hypertensive rat [1] = experiment: Blood pressure lowering effect on oral administration to rats at several doses; assay type: in vivo, male Sprague-Dawley rats
Description: (§1) To induce renal hypertension, left renal artery of 4 week-old male Sprague-Dawley rats(from The Korea Research Institute of Chemical Technology) was ligated. The rats were anesthetized with ether and the surgical region on the left abdomen of the rat was shaved, disinfected, and then incised about 1 cm vertically. The renal artery near abdominal aorta was isolated carefully from surrounding tissues and veins, and then ligated completely with a suture(4/0 sterile surgical silk). The muscular strata and skin of the surgical area were sutured with a suture(4/0 sterile surgical silk). The surgical region was disinfected to prevent infection and thereafter, 200 to 250 mg/Kg/day of cephazolin sodium was injected intramuscularly for 2 days. 6 to 8 days after the ligation, rats showing systolic pressure of more than 180 mmHg were selected for renal hypertension test. The blood pressure was determined by a tail-cuff method from the tail under unanesthetized condition(Gerold, M. et al., Arzneimittrel-Forsch, 18, 1285(1968)).
(§2) Each of the compounds to be tested was administered intravenously or orally into the renal hypertensive rat. The blood pressure of the rats was determined by direct method(Chiu, A. T. et al., J. Pharmacol. Exp. Ther. 250, 867(1989)) using a catheter. The rats were anesthetized with ketamine hydrochloride(125 mg/kg, i.p.) and a catheter was filled with saline and inserted into a carotid artery and carotid vein. The surgical area was sutured with a metal clip. The rats were relaxed at least 3 hours and the catheter in the carotid artery was adapted to an isotec pressure transducer to determine their blood pressure and heart rate with a physiograph(Linearcorder WR3310). After the blood pressure was stabilized, the test compound was administered intravenously or orally. For intravenous administration, the administered volume and washing volume were 1.0 ml/Kg and 0.2 ml, respectively. The blood pressure and heart rate were measured in regular intervals up to 24 hours after the administration of the test compound and compared with those measured after the administration of the control compound Losartan.
(§3) The test compound was dissolved in 0.05N KOH for intravenous administration and suspended in Tween 80 for oral administration.
(iii) Blood pressure lowering effect The present compounds, Losartan(Dup 753) and the Merck compound were administrated orally to rats in 10, 3, 1, 0.3 and 0.1 mg/kg under the same condition as in (ii) and the blood pressure lowering effect was determined.

angiotensin II receptor = experiment: Angiotensin II Receptor Binding Assay ([3H] angiotensin II binding inhibition); settings: [3H] angiotensin II ligand; 60 minutes, 25° C.; test concentration not given
Experimental: In accordance with the procedure disclosed in Chiu, A. T. et al., Eur. J. Pharm., 157, 13(1981), a ligand marked with a radioisotope was reacted with an angiotensin II receptor and the reactant was filtered with a glass fiber to remove unreacted ligand. After washing the filter, the amount of the remaining isotope was measured to determine the binding activity of the ligand, as described below in detail.
Sprague-Dawley rats and Wistar rats of 250 to 350 g(from The Korea Research Institute of Chemical Technology) were tested and the test procedures were carried out at 4° C., unless otherwise specified. Adrenal gland was separated from the Sprague-Dawley rats(liver, in the case of Wistar rats) into cortex and medulla. The separated adrenal cortex and medulla were washed with a sucrose buffer solution (0.2M sucrose, 1 mM EDTA, 10 mM Tris, pH 7.2) and homogenized in the same buffer solution by using a Teflon pestle and a Brinkmann homogenizer. The homogenates were centrifuged at 3,000 Xg for 10 minutes to remove precipitates and further centrifuged at 12,000 Xg for 13 minutes. The final supernatants were centrifuged at 102,000 Xg for 1 hour to obtain precipitates, which were washed with a Tris buffer solution(50 mM Tris, 5 mM MgCl2, pH 7.2) and re-centrifuged at 102,000 Xg for 1 hour. The resulting precipitates were immediately processed at the following step or stored at -70° C.
The precipitates were suspended in a Tris buffer solution. The amount of protein was determined by using a Bio-Rad DC protein analyzing kit and the protein concentration was adjusted to the amounts of: 0.2 to 0.3 mg/ml(Sprague-Dawley rat: adrenal cortex), 1.5 to 2.0 mg/ml(Sprague-Dawleyrat: adrenal medulla), and 1.5 to 2.0 mg/ml(Wistar rat: liver). To the suspension, bovine serum albumin(BSA) was added to a concentration of 0.25 wt % and the resultant was immediately processed at the following step or stored at -70° C.
(ii) Measurement of angiotensin II receptor binding capacity 50 μl(based on ligand) of [^3 H] angiotensin II(NEN, NET-446) and 10 μl of each of the test compounds with various concentrations were added to the buffer solution(50 mM Irris(pH 7.2), 5 mM MgCl2, 0.25% BSA) to adjust the final volume to be 0.5 ml. 100 μl of the receptor suspension was added thereto and the resulting solution was reacted for 60 minutes while stirring in a water bath at 25° C. 3 ml of cold buffer solution for analysis was added to cease the reaction. The isotope which was bound to the receptor was isolated from the resultant by using Brandel Cell Harvester System with Whatman glass fiber GF/C. After washing the filter, the radioactivity of the filter was determined by using a liquid scintillation counter. Binding inhibition(%) of the test compound was calculated as follows:
Binding Inhibition(%)=[{(T--B)-(S--B)}/(T--B)]×100
wherein T is cpm of the reaction product untreated with the test compound, S is cpm of the reaction product treated with the test compound, and B is cpm of blank test.

renal hypertensive rat [2] = experiment: Blood pressure lowering effect in renal hypertension (renal hypertensive rats, intravenous or oral); assay type: in vivo, male Sprague-Dawley rats; settings: 3 mg, read-out: Maxium Blood Pressure Lowering Effect(%)
Description: as §1, §2, §3

unanesthetized dogs = experiment: Blood pressure lowering effect in unanesthetized dogs (furosemide treated); assay type: in vivo, dog; parameters: Maximum blood pressure lowering effect in a dog: unit not given here; settings: oral; for Blood pressure variation with time: 3 mg
Experimental: A number of dogs were fed freely in a feeding room and those weighing 7 to 12 kg in good health were selected regardless of their gender.
The test dogs were anesthetized with 30 mg/kg of pentobarbital sodium by intravenous injection and the left femoral artery and femoral vein were separated carefully. Silicone catheter, specially prepared and filled with saline treated with heparin(1,000 IU/ml), was cannulated into the blood vessels. After the surgery, the dogs were constrained to measure their blood pressure continuously with Gould 2000 physiograph adapted to a Grass P23 XL pressure transducer; and their heart rates were monitored with ECG/Biotacho amplifier. The dogs were tested at least 2 days after the surgery.
10 mg/kg of furosemide was injected intramuscularly 18 hours(in case of intravenous injection, 2 hours) before the beginning of the test (administration of the test compound) to improve the activity of renin in blood plasma. After the injection of furosemide, neither food nor water was provided. The test compound was suspended in Tween 80 and administered in an amount of 20 mg/kg orally. The blood pressure and heart rate were measured up to 8 hours after the administration of each test compound.
The maximum blood pressure lowering effect of the present compounds and the control compounds were determined in different amounts of administration using the same method as […]

CCCCc1nc(Cl)c(CO)n1Cc1ccc(-c2ccccc2-c2nn[nH]n2)cc1 [Losartan(Dup 753), Losartan, reference compound]
blood pressure lowering effect (renal hypertensive rat [1]; 3 mg/kg): 30%
blood pressure lowering effect (renal hypertensive rat [1]; 10 mg/kg): 46%
Binding Inhibition(%) (angiotensin II receptor): 48.0%
change in vivo at 3 mg (renal hypertensive rat [2]): -30%
Maximum blood pressure lowering effect in a dog (unanesthetized dogs; 3 mg/kg): 13
Maximum blood pressure lowering effect in a dog (unanesthetized dogs; 10 mg/kg): 23
Blood pressure variation with time (unanesthetized dogs; dogs, 0.5 hr): -11.0%
Blood pressure variation with time (unanesthetized dogs; dogs, 1 hr): -12.3%
Blood pressure variation with time (unanesthetized dogs; dogs, 2 hr): -12.8%
Blood pressure variation with time (unanesthetized dogs; dogs, 4 hr): -9.9%
Blood pressure variation with time (unanesthetized dogs; dogs, 6 hr): -10.1%
Blood pressure variation with time (unanesthetized dogs; dogs, 8 hr): -8.2%
maximum blood pressure lowering effect lasted up to (after the administration) (unanesthetized dogs; dogs, as shown in Table 3): up to 2 hours

CCCCc1nc2cc(-c3ccc(OC)cc3)c(C(OC)OC)nc2n1Cc1ccc(-c2ccccc2-c2nn[nH]n2)cc1 [Example 6, 2-butyl-5-dimethoxymethyl-6-(4-methoxyphenyl-1-yl)-3-[2'-(1H-tetrazol-5-yl)-biphenyl-4-ylmethyl]-3H-imidazo[4,5-b]pyridine]
Binding Inhibition(%) (angiotensin II receptor): 49.0%
change in vivo at 3 mg (renal hypertensive rat [2]): -25%

CCCCc1nc2cc(-c3cccc[n+]3[O-])c(C(OC)OC)nc2n1Cc1ccc(-c2ccccc2-c2nn[nH]n2)cc1 [Example 21, 2-butyl-5-dimethoxymethyl-6-(1-oxy-pyridin-2-yl)-3-[2'-(1H-tetrazol-5-yl)-biphenyl-4-ylmethyl]-3H-imidazo[4,5-b]pyridine]
Binding Inhibition(%) (angiotensin II receptor): 92.2%
change in vivo at 3 mg (renal hypertensive rat [2]): -20%

CCCCc1nc2cc(-c3ccccc3[N+](=O)[O-])c(C(OC)OC)nc2n1Cc1ccc(-c2ccccc2-c2nn[nH]n2)cc1 [Example 19, 2-butyl-5-dimethoxymethyl-6-(2-nitrophenyl-1-yl)-3-[2'-(1H-tetrazol-5-yl)-biphenyl-4-ylmethyl]-3H-imidazo[4,5-b]pyridine]
Binding Inhibition(%) (angiotensin II receptor): 70.9%
change in vivo at 3 mg (renal hypertensive rat [2]): -29%

CCCCc1nc2cc(-c3cc[n+]([O-])cc3)c(C(OC)OC)nc2n1Cc1ccc(-c2ccccc2-c2nn[nH]n2)cc1 [Example 25, 2-butyl-5-dimethoxymethyl-6-(1-oxy-pyridin-4-yl)-3-[2'-(1H-tetrazol-5-yl)-biphenyl-4-ylmethyl)-3H-imidazo[4,5-b]pyridine]
Binding Inhibition(%) (angiotensin II receptor): 97.0%
change in vivo at 3 mg (renal hypertensive rat [2]): -29%

CCCCc1nc2cc(-c3ccccc3)c(C3OCCO3)nc2n1Cc1ccc(-c2ccccc2-c2nnn[nH]2)cc1 [Example 3, 2-butyl-5-(1,3-dioxolan-2-yl)-6-phenyl-3-[2'-(1H-tetrazol-5-yl)-biphenyl-4-ylmethyl]-3H-imidazo[4,5-b]pyridine]
Binding Inhibition(%) (angiotensin II receptor): 70.6%
change in vivo at 3 mg (renal hypertensive rat [2]): -27%

CCCCc1nc2cc(-c3cccnc3)c(C(OC)OC)nc2n1Cc1ccc(-c2ccccc2-c2nnn[nH]2)cc1 [Example 22, 2-butyl-5-dimethoxymethyl-6-(pyridin-3-yl)-3-[2'-(1H-tetrazol-5-yl)-biphenyl-4-ylmethyl]-3H-imidazo[4,5-b]pyridine]
Binding Inhibition(%) (angiotensin II receptor): 94.8%
change in vivo at 3 mg (renal hypertensive rat [2]): -38%

CCCCc1nc2cc(-c3ccccc3)c(C(OC)OC)nc2n1Cc1ccc(-c2ccccc2-c2nnn[nH]2)cc1 [Example 1, 2-butyl-5-dimethoxymethyl-6-phenyl-3-[2'-(1H-tetrazol-5-yl)biphenyl-4-ylmethyl]-3H-imidazo[4,5-b]pyridine]
blood pressure lowering effect (renal hypertensive rat [1]; 1 mg/kg): 25%
blood pressure lowering effect (renal hypertensive rat [1]; 3 mg/kg): 38%
Binding Inhibition(%) (angiotensin II receptor): 77.8%
change in vivo at 3 mg (renal hypertensive rat [2]): -40%
Maximum blood pressure lowering effect in a dog (unanesthetized dogs; 1 mg/kg): 15
Maximum blood pressure lowering effect in a dog (unanesthetized dogs; 3 mg/kg): 35
Maximum blood pressure lowering effect in a dog (unanesthetized dogs; 10 mg/kg): 41
Blood pressure variation with time (unanesthetized dogs; dogs, 0.5 hr): -31.3%
Blood pressure variation with time (unanesthetized dogs; dogs, 1 hr): -32.6%
Blood pressure variation with time (unanesthetized dogs; dogs, 2 hr): -34.0%
Blood pressure variation with time (unanesthetized dogs; dogs, 4 hr): -33.0%
Blood pressure variation with time (unanesthetized dogs; dogs, 6 hr): -30.1%
Blood pressure variation with time (unanesthetized dogs; dogs, 8 hr): -25.9%
